# Test results from ChEMBL document CHEMBL1125753, “Absolute structure-cytotoxic activity relationships of steganacin congeners and analogues” (1991).
# Tested on: KB
# Assay: In vitro effective dose to inhibit KB cell growth from a human epidermoid carcinoma.
# Assay type: functional
# Conditions: not given
row,Structure (SMILES),ED50
1,COc1cc(C2c3cc4c(cc3CC3COC(=O)[C@@H]32)OCO4)cc(OC)c1OC (mixture of isomers),<0.3 µg/mL
2,COc1cc2c(c(OC)c1OC)-c1cc3c(cc1C[C@H]1COC(=O)[C@H]1C2)OCO3 (racemic) [PICROSTEGANE],28 µg/mL
3,COc1cc2c(c(OC)c1OC)-c1cc3c(cc1C[C@H]1COC(=O)[C@@H]1C2)OCO3 (racemic) [STEGANE],0.94 µg/mL
4,COc1cc2c(c(OC)c1OC)-c1cc3c(cc1CC1COC(=O)C1C2)OCO3 (racemic; form 1),1.13 µg/mL
5,COc1cc2c(c(OC)c1OC)-c1cc3c(cc1CC1COC(=O)C1C2)OCO3 (racemic; form 2),<0.3 µg/mL
6,COc1cc2c(c(OC)c1OC)-c1cc3c(cc1CC1COC(=O)C1C2)OCO3 (racemic; form 3),1.33 µg/mL
7,COc1cc(C2c3cc4c(cc3CC3COC(=O)[C@@H]32)OCO4)cc(OC)c1OC (stereo in doubt),1.75 µg/mL
8,COc1cc2c(c(OC)c1OC)-c1cc3c(cc1C[C@@H]1COC(=O)[C@@H]1C2)OCO3 (stereo in doubt; (+)),4.1 µg/mL
9,COc1cc2c(c(OC)c1OC)-c1cc3c(cc1C[C@H]1COC(=O)[C@H]1C2)OCO3 (stereo in doubt; (+)) [PICROSTEGANE],32 µg/mL
10,COc1cc2c(c(OC)c1OC)-c1cc3c(cc1C[C@@H]1COC(=O)[C@@H]1C2)OCO3 (stereo in doubt; (-)),<0.3 µg/mL
11,COc1cc2c(c(OC)c1OC)-c1cc3c(cc1C[C@H]1COC(=O)[C@H]1C2)OCO3 (stereo in doubt; (-)) [PICROSTEGANE],8.8 µg/mL
12,COc1cc2c(c(OC)c1OC)-c1cc3c(cc1[C@@H](OC(C)=O)[C@H]1COC(=O)[C@@H]1C2)OCO3 (stereo in doubt; form 1),1.75 µg/mL
13,COc1cc2c(c(OC)c1OC)-c1cc3c(cc1C[C@H]1COC(=O)[C@@H]1C2)OCO3 (stereo in doubt; form 1) [STEGANE],86 µg/mL
14,COc1cc2c(c(OC)c1OC)-c1cc3c(cc1[C@@H](OC(C)=O)[C@H]1COC(=O)[C@@H]1C2)OCO3 (stereo in doubt; form 2),61 µg/mL
15,COc1cc2c(c(OC)c1OC)-c1cc3c(cc1C[C@H]1COC(=O)[C@@H]1C2)OCO3 (stereo in doubt; form 2) [STEGANE],0.49 µg/mL
16,COc1cc2c(c(OC)c1OC)-c1cc3c(cc1[C@@H](OC(C)=O)[C@H]1COC(=O)[C@@H]1C2)OCO3 (stereo in doubt; form 3),16.6 µg/mL
17,COc1cc2c(c(OC)c1OC)-c1cc3c(cc1C[C@H]1COC(=O)[C@@H]1C2)OCO3 (stereo in doubt; form 3) [STEGANE],94 µg/mL
18,COc1cc2c(c(OC)c1OC)-c1cc3c(cc1C[C@H]1COC(=O)[C@@H]1C2)OCO3 (stereo in doubt; form 4) [STEGANE],0.47 µg/mL

# Same assay, conditions: Homo sapiens, KB; read-out: ED50 (the source's name)
row,EC50,Structure (SMILES)
1,16 µg/mL,COc1cc2c(c(OC)c1OC)-c1cc3c(cc1[C@H](O)[C@H]1COC(=O)[C@H]1C2)OCO3
2,5 µg/mL,COc1cc2c(c(OC)c1OC)-c1cc3c(cc1[C@@H](O)[C@H]1COC(=O)[C@@H]1C2)OCO3
3,> 100 µg/mL,COc1cc2c(c(OC)c1OC)-c1cc3c(cc1[C@H](O[C@@H]1O[C@@H](CO)[C@@H](O)[C@H](O)[C@@H]1O)[C@H]1COC(=O)[C@@H]1C2)OCO3
4,56 µg/mL,COc1cc2c(c(OC)c1OC)-c1cc3c(cc1[C@H](O[C@@H]1O[C@@H](COC(C)=O)[C@@H](OC(C)=O)[C@H](OC(C)=O)[C@@H]1OC(C)=O)[C@H]1COC(=O)[C@@H]1C2)OCO3
5,> 100 µg/mL,COc1cc2c(c(OC)c1OC)-c1cc3c(cc1[C@H](O[C@@H]1O[C@H]4CO[C@@H](c5cccs5)O[C@H]4[C@H](O)[C@@H]1O)[C@H]1COC(=O)[C@@H]1C2)OCO3
6,3.9 µg/mL,COc1cc2c(c(OC)c1OC)-c1cc3c(cc1[C@H](OC(=O)c1ccc(Br)cc1)[C@H]1COC(=O)[C@@H]1C2)OCO3
7,0.53 µg/mL,COc1cc2c(c(OC)c1OC)-c1cc3c(cc1[C@H](O)[C@H]1COC(=O)[C@@H]1C2)OCO3
8,1.5 µg/mL,COc1cc2c(c(OC)c1OC)-c1cc3c(cc1[C@H](OCCN(C)C)[C@H]1COC(=O)[C@@H]1C2)OCO3
9,6.2 µg/mL,COc1cc2c(c(OC)c1OC)-c1cc3c(cc1C(=O)[C@H]1COC(=O)[C@@H]1C2)OCO3
10,75 µg/mL,COc1cc2c(c(OC)c1OC)-c1cc3c(cc1C[C@H](CO)[C@@H](CO)C2)OCO3 (racemic)
11,15 µg/mL,COc1cc2c(c(OC)c1OC)-c1cc3c(cc1C[C@H](COC(C)=O)[C@@H](COC(C)=O)C2)OCO3 (racemic)
12,< 0.3 µg/mL,COc1cc2c(c(OC)c1OC)-c1ccc(OC)c(=O)cc1[C@@H](NC(C)=O)CC2 [COLCHICINE]

row,Structure (SMILES),EC50
1,COc1cc2c(c(OC)c1OC)-c1cc3c(cc1[C@H](C#N)[C@H]1COC(=O)[C@@H]1C2)OCO3,1.52 µg/mL
2,COc1cc2c(c(OC)c1OC)-c1cc3c(cc1C(OC(C)=O)[C@H]1COC(=O)[C@@H]1C2)OCO3 (mixture of isomers),15.7 µg/mL
3,COc1cc(C[C@H]2C(=O)OCC2Cc2ccc3c(c2)OCO3)cc(OC)c1OC (mixture of isomers),16.8 µg/mL
4,COc1cc2c(c(OC)c1OC)-c1cc3c(cc1[C@@H](OC(C)=O)C1COC(=O)[C@H]1C2)OCO3 (mixture of isomers) [STEGANACIN],< 0.3 µg/mL
5,COc1cc(C[C@@H]2C(=O)OC[C@H]2Cc2ccc3c(c2)OCO3)cc(OC)c1OC (stereo in doubt; (+)),5.2 µg/mL
6,COc1cc2c(c(OC)c1OC)-c1cc3c(cc1[C@H](OC(C)=O)[C@H]1COC(=O)[C@@H]1C2)OCO3 [(-)-STEGANACIN],< 0.3 µg/mL
7,COc1cc([C@@H]2c3cc4c(cc3[C@H](O)[C@H]3COC(=O)[C@H]23)OCO4)cc(OC)c1OC [PODOFILOX],< 0.3 µg/mL

# Tested on: Tetrahymena pyriformis
# Assay: In vitro minimum inhibition concentration to inhibit the regeneration of cilia in Tetrahymena pyriformis W.
# Assay type: functional
# Conditions: not given
row,Structure (SMILES),MIC
1,COc1cc2c(c(OC)c1OC)-c1cc3c(cc1C[C@@H]1COC(=O)[C@@H]1C2)OCO3 (stereo in doubt; (+)),>20 µg/mL
2,COc1cc(C[C@@H]2C(=O)OC[C@H]2Cc2ccc3c(c2)OCO3)cc(OC)c1OC (stereo in doubt; (+)),<20 µg/mL
3,COc1cc(CC2COCC2Cc2ccc3c(c2)OCO3)cc(OC)c1OC (stereo in doubt; (+)) [CISBURSERAN],20 µg/mL

# Same assay, conditions: Tetrahymena pyriformis; read-out: MIC
row,Structure (SMILES),MIC
1,COc1cc2cc(c1Cl)N(C)C(=O)C[C@H](OC(=O)C(C)C)[C@]1(C)O[C@H]1[C@H](C)[C@@H]1C[C@@](O)(NC(=O)O1)[C@H](OC)/C=C/C=C(\C)C2,< 0.5 µg/mL
2,COc1cc2c(c(OC)c1OC)-c1cc3c(cc1C(OC(C)=O)[C@H]1COC(=O)[C@@H]1C2)OCO3 (mixture of isomers),> 20 µg/mL
3,COc1cc(C[C@H]2C(=O)OCC2Cc2ccc3c(c2)OCO3)cc(OC)c1OC (mixture of isomers),> 20 µg/mL
4,COc1cc2c(c(OC)c1OC)-c1cc3c(cc1[C@@H](OC(C)=O)C1COC(=O)[C@H]1C2)OCO3 (mixture of isomers) [STEGANACIN],> 20 µg/mL
5,COc1cc2c(c(OC)c1OC)-c1cc3c(cc1CC1COC(=O)C1C2)OCO3 (racemic; form 2),> 20 µg/mL
6,COc1cc(C2c3cc4c(cc3CC3COC(=O)[C@@H]32)OCO4)cc(OC)c1OC (stereo in doubt),> 20 µg/mL
7,COc1cc2c(c(OC)c1OC)-c1cc3c(cc1C[C@H]1COC(=O)[C@H]1C2)OCO3 (stereo in doubt; (+)) [PICROSTEGANE],> 20 µg/mL
8,COc1cc2c(c(OC)c1OC)-c1cc3c(cc1C[C@@H]1COC(=O)[C@@H]1C2)OCO3 (stereo in doubt; (-)),20 µg/mL
9,COc1cc(C[C@@H]2C(=O)OC[C@H]2Cc2ccc3c(c2)OCO3)cc(OC)c1OC (stereo in doubt; (-)),> 20 µg/mL
10,COc1cc(CC2COCC2Cc2ccc3c(c2)OCO3)cc(OC)c1OC (stereo in doubt; (-)) [CISBURSERAN],> 20 µg/mL
11,COc1cc2c(c(OC)c1OC)-c1cc3c(cc1[C@@H](OC(C)=O)[C@H]1COC(=O)[C@@H]1C2)OCO3 (stereo in doubt; form 2),> 20 µg/mL
12,COc1cc2c(c(OC)c1OC)-c1cc3c(cc1C[C@H]1COC(=O)[C@@H]1C2)OCO3 (stereo in doubt; form 2) [STEGANE],> 20 µg/mL
13,COc1cc2c(c(OC)c1OC)-c1cc3c(cc1[C@H](OC(C)=O)[C@H]1COC(=O)[C@@H]1C2)OCO3 [(-)-STEGANACIN],> 20 µg/mL
14,COc1cc2c(c(OC)c1OC)-c1ccc(OC)c(=O)cc1[C@@H](NC(C)=O)CC2 [COLCHICINE],> 20 µg/mL
15,COc1cc([C@@H]2c3cc4c(cc3[C@H](O)[C@H]3COC(=O)[C@H]23)OCO4)cc(OC)c1OC [PODOFILOX],> 20 µg/mL
